From PMC11706420, “Establishing a physiologically based pharmacokinetic framework for aldehyde oxidase and dual aldehyde oxidase‐CYP substrates” (CPT: Pharmacometrics & Systems Pharmacology, 2024)
Where two headings read alike, the source gives them in different places.

Key:
[1] = Plasma protein binding (fup), rapid equilibrium dialysis; format: in vitro ADME, human; details: male, human, plasma, 20 h, 1 µM
[2] = In vitro permeability (Papp), transwell transport; details: dog, MDCK
[3] = Cytosolic binding (fucyt), human liver cytosol with AO inhibitor; details: 1 mg/mL; n=3, mean (CV%)
[4] = cited from earlier work
[5] = Microsomal binding (fumic); details: for Predicted fumic for 1 mg/mL: corrected with Hallifax&Houston algorithm
Experimental: Microsomal binding (fumic):
(§1) The fraction unbound in human liver microsomes (fumic) of compounds was determined by equilibrium
(§2) dialysis using the high-throughput dialysis method 2 using membranes from HTDialysis, LLC (Gales
(§3) Ferry, CT) having 12 to 14 kDa molecular mass cutoff. Deactivated HLM (by leaving the HLM
(§4) incubation media on the bench overnight at ambient temperature) at 0.25 mg/mL with 2 µM of
(§5) compounds (a final concentration of DMSO as 1%) was added to the donor compartment in 50 mM
(§6) phosphate buffer containing 1 M MgCl2. (150 µL, n=4 per compound). 150 µL of Dulbecco’s PBS
(§7) buffer (pH 7.4) was added to the receiver chamber for each replicate. After reaching equilibrium for 6
(§8) h on a plate shaker (200 rpm) at 37°C in a humidified CO2 incubator (5% CO2), aliquots from both the
(§9) receiver (45 µL) and donor (15 µL) sides of the membrane were matrix matched and analyzed by LC-
(§10) MS/MS. Matrix stability (n=3) and % of recovery (n=4) were assessed.
(§11) Data analysis for binding in microsomal and cytosolic incubations:
(§12) Fraction unbound in microsomal (fumic) and cytosolic (fucyt) incubations were calculated via Eq. S10-11
(§13) based on the ratio of the peak areas of analyte and internal standard.
(§14) 𝑃𝑒𝑎𝑘 𝐴𝑟𝑒𝑎 𝑅𝑎𝑡𝑖𝑜 = (𝑃𝑒𝑎𝑘 𝐴𝑟𝑒𝑎 𝑜𝑓 𝐴𝑛𝑎𝑙𝑦𝑡𝑒)/(𝑃𝑒𝑎𝑘 𝐴𝑟𝑒𝑎 𝑜𝑓 𝐼𝑛𝑡𝑒𝑟𝑛𝑎𝑙 𝑆 tan 𝑑 𝑎𝑟𝑑) (Eq. S10)
(§15) 𝑓𝑢𝑚𝑖𝑐 𝑜𝑟 𝑓𝑢𝑐𝑦𝑡 = (𝑃𝑒𝑎𝑘 𝐴𝑟𝑒𝑎 𝑅𝑎𝑡𝑖𝑜 𝑖𝑛 𝑟𝑒𝑐𝑒𝑖𝑣𝑒𝑟 𝑐𝑜𝑚𝑝𝑎𝑟𝑡𝑚𝑒𝑛𝑡)/
(§16) concentration (0.5 mg/mL) using Hallifax and Houston algorithm (Hallifax and Houston, 2006). Matrix
(§17) stability and recovery were assessed using Eq. S12 and Eq. S13.
(§18) %𝑠𝑡𝑎𝑏𝑖𝑙𝑖𝑡𝑦 = (𝐴𝑣𝑒𝑟𝑎𝑔𝑒 𝑝𝑒𝑎𝑘 𝑎𝑟𝑒𝑎 𝑖𝑛 𝑚𝑎𝑡𝑟𝑖𝑥 𝑎𝑡 𝑡ℎ𝑒 𝑒𝑛𝑑 𝑜𝑓 𝑖𝑛𝑐𝑢𝑏𝑎𝑡𝑖𝑜𝑛)/
(§19) (𝐴𝑣𝑒𝑟𝑎𝑔𝑒 𝑝𝑒𝑎𝑘 𝑎𝑟𝑒𝑎 𝑎𝑡 𝑇 = 0) × 100 (Eq. S12)
%𝑟𝑒𝑐𝑜𝑣𝑒𝑟𝑦 = (𝐴 + 𝐵)/𝐶 × 100 (Eq. S13)
(§20) where A is the average peak area ratio of all matrix samples, B is the average peak area ratio
(§21) of all buffer samples multiplied with the buffer dilution factor and C is the average peak area ratio of

[6] = cited from earlier work; for fmAO: ref suppl. 8-13
[7] = Cytosolic binding (fucyt), dog liver cytosol; details: 1 mg/mL; n=3, mean (CV%)
Experimental: In vitro data were generated to inform the PBPK models of the selected drugs (Supplement 1 in Appendix S1; Table S1). Subcellular fractions of human and dog liver were sourced from XenoTech (Kansas City, KS, USA). In vitro CLint,u was measured with substrate depletion and binding assays for all compounds (1 μM) in human liver microsomes (HLM; 0.25–0.5 mg/mL) and HLC (1 mg/mL). HLC pool was prepared from livers perfused with Custodiol HTK (histidine tryptophan ketoglutarate) solution, marketed as having preserved “high AO/XO activity.”[15] Dog liver cytosols (DLC; 1 mg/mL) were used to investigate cytosolic binding in the absence of AO. Routine in vitro assays were used to quantify unbound fraction in plasma (fup), blood‐to‐plasma ratio (B/P), and apparent permeability (Papp) through transwell transport assays utilizing canine Mdr1 knockout and empty vector‐transfected MDCKI cells.
𝐶𝐿 = 𝑘 × 𝑣𝑜𝑙𝑢𝑚𝑒 𝑜𝑓 𝑖𝑛𝑐𝑢𝑏𝑎𝑡𝑖𝑜𝑛 (Eq S9)
Cytosolic binding (fucyt):
The fraction unbound in human liver cytosols (fucyt) of compounds was determined by equilibrium
dialysis using the RED device (Thermo Fisher, Waltham MA, USA) with a molecular weight cut-off of
8 kDa. Dog or human liver cytosols at 1 mg/mL with 1 µM of compounds (300 µL, n=3 per compound)
were added to the donor compartment in 100 mM potassium phosphate buffer with final DMSO
liver cytosols to inactivate AO, whereas dog was used as a natural AO knock-out model. 500 µL of 100
mM potassium phosphate buffer (pH 7.35) was added to the receiver chamber for each replicate.
RED device was then sealed with an adhesive foil and incubated on an orbital shaker at 450 rpm (VWR
Symphony) at 37°C with 5 % CO2. After reaching equilibrium for 4 hours, aliquots from both the
receiver (30µL) and donor (30µL) sides of the membrane were matrix matched, and then quenched with
180 µL of cold ACN with 100 nM propranolol (internal standard). The samples were placed in a
Beckman Coulter Allegra x 12R Centrifuge (Brea, CA) for 15 minutes at 3700 rpm. After centrifugation,
the supernatant of each sample was diluted 1:2 and analyzed by LC -MS/ MS. Matrix stability and
recovery were assessed in triplicates and followed identical sample preparation.
Microsomal binding (fumic):
as §1, §2, §3, §4, §5, §6, §7, §8, §9, §10, §11, §12, §13, §14, §15, §16, §17, §18, §19
%𝑟𝑒𝑐𝑜𝑣𝑒𝑟𝑦 = (𝐴 + 𝐵)/𝐶 × 100 (Eq. S13)
as §20

[8] = observed, cited from earlier work; for CLRenal: ref Table S2/S3 studies
[9] = with 25 μM hydralazine; cited from earlier work
[10] = Microsomal clearance incubations (substrate depletion); details: both, human, liver microsomes
Experimental: (§22) Subcellular fractions of human and dog liver were sourced from XenoTech (Kansas City, KS, USA). In vitro CLint,u was measured with substrate depletion and binding assays for all compounds (1 μM) in human liver microsomes (HLM; 0.25–0.5 mg/mL) and HLC (1 mg/mL).
(§23) Microsomal clearance incubations (CLint):
(§24) Human liver microsomes were stored at −80°C and rapidly thawed just before use at 37°C.
(§25) All compounds were mixed with HLM and 50 mM
(§26) phosphate buffer. 450 µL of the mixture was added to 1.2mL cluster tubes in a 96-well block in
(§27) duplicate and warmed in a water bath (Thermo Scientific Precision™,Waltham MA, USA ) at 37°C for
(§28) 5 min. Reactions were initiated by the addition of 50 µL from 10 mM of NADPH stock in 50 mM
(§29) phosphate buffer (final NADPH concentration, 1 mM). The final incubation contained 1 µM test
(§30) compound in 500 µL total volume with 0.02% DMSO. At each time point (5, 10, 20, 30, and 60 min),
(§31) 60 µL of incubation mixture was added to 120 uL of quench solutions (MeOH:ACN, 1:1, v:v)
(§32) containing internal standard (0.5 µM carbutamide). The mixture was centrifuged at 3000 rpm for 20
(§33) min (Eppendorf 5810R, Hamburg, Germany). Supernatant was injected to HPLC-MS/MS with for data
(§34) Data analysis for substrate depletion assays:
(§35) Data from the microsomal and cytosolic incubations were analyzed using GraFit 7 (Erithacus Software,
(§36) Horley, UK) to determine the elimination rate constant (k), which was used in CLint calculation (Eq.
(§37) S9). A nonlinear single exponential fit was used for all compounds.
𝐶𝐿 = 𝑘 × 𝑣𝑜𝑙𝑢𝑚𝑒 𝑜𝑓 𝑖𝑛𝑐𝑢𝑏𝑎𝑡𝑖𝑜𝑛 (Eq S9)

aldehyde oxidase (AO) = test: Observed clinical pharmacokinetics; details: male, human, plasma, intravenous, 80 mg
Experimental: Human mass balance and clinical pharmacokinetics data after i.v./oral administration (Supplement 3 in Appendix S1; Tables S2 and S3) were utilized to obtain observed fmi and CLint,u, respectively.[23], [24] When observed fmi contained uncertainty (Table S2), minimum and maximum fmi were tested. Virtual subjects (n = 1000) were generated using Simcyp, reflecting the subjects in respective clinical study (Table S3). The mean of the simulated physiological scalars, hepatic blood flow, and predicted/optimized fraction absorbed (fa) and fraction escaping gut metabolism (Fg) were then used in the back‐calculation of in vivo total CLint,u. The well‐stirred liver model was utilized if intravenous (i.v.) data were available or calculated from oral CL, as described previously.[5] CLint,u was then scaled back to cytosolic or microsomal CLint,u using physiological scalars and fmi. Middle‐out models were developed using either observed fmi or CLint,u to refine ESF‐supported bottom‐up models. In the top‐down model, both parameters were fixed to observed values (Figure 1).

in vitro = details: both, human, microsomes
Experimental: as §22, §23, §24, §25, §26, §27, §28, §29, §30, §31, §32, §33, §34, §35, §36, §37
𝐶𝐿 = 𝑘 × 𝑣𝑜𝑙𝑢𝑚𝑒 𝑜𝑓 𝑖𝑛𝑐𝑢𝑏𝑎𝑡𝑖𝑜𝑛 (Eq S9)

[11] = Cytosolic clearance incubations (substrate depletion); details: both, human, liver cytosol
Experimental: In vitro CLint,u was measured with substrate depletion and binding assays for all compounds (1 μM) in human liver microsomes (HLM; 0.25–0.5 mg/mL) and HLC (1 mg/mL). HLC pool was prepared from livers perfused with Custodiol HTK (histidine tryptophan ketoglutarate) solution, marketed as having preserved “high AO/XO activity.”[15]
Cytosolic clearance incubations (CLint):
Cytosolic incubations were conducted in triplicate, with an additional assay with one replicate for each
Human liver cytosols (HLC) were stored at −80°C and
rapidly thawed just before use at 37°C. HLC (final concentration, 1 mg/mL) was added to Eppendorf
tubes in 96-well plate format and prewarmed at 37°C for 5 min. 45 µL of 50 mM potassium phosphate
concentration of organic solvent in the incubation media was ≤0.1%. Reactions were initiated by the
addition of compound stock solutions (final concentration, 1 µM in 500 µL). At each time point (0, 5,
15, 30, 60 and 120 min), samples from the incubation mixture were added to quench solutions (ACN
or ACN:MeOH containing pruvanserin or midazolam as internal standard, 80:20, v:v). The mixture was
centrifuged at 3500-4000 rpm for 10-30 min (Beckman Coulter Allegra 25R Centrifuge; Brea, CA,
USA). Each well was assayed for parent compound and internal standard, using a suitable LC/MS/MS
method. Positive control carbazeran (1 µM) was run at the same time to ensure system integrity (data

[12] = both, human, 6 h, 2 µM, pH 7.4
Experimental: Microsomal binding (fumic):
as §1, §2, §3, §4, §5, §6, §7, §8, §9, §10, §11, §12, §13, §14, §15, §16, §17, §18, §19
%𝑟𝑒𝑐𝑜𝑣𝑒𝑟𝑦 = (𝐴 + 𝐵)/𝐶 × 100 (Eq. S13)
as §20, §21

CYP3A4 = details: cited from earlier work
[13] = iv: zaleplon 5 (F), ziprasidone 5, zoniporide 80 mg, ref suppl. 22,23,13
[14] = DDI study with rifampicin (capmatinib 400, idelalisib 150, lenvatinib 24 mg) or carbamazepine (ziprasidone 20 mg), observed, ref suppl. 15,18,21,25
[15] = with itraconazole (capmatinib 200 mg) or ketoconazole (idelalisib 400, lenvatinib 5, ziprasidone 40 mg), observed, ref suppl. 15,10,17,20,24
[16] = with rifampicin (capmatinib 400, idelalisib 150, lenvatinib 24 mg) or carbamazepine (ziprasidone 20 mg), observed, ref suppl. 15,18,21,25

## N=C(N)NC(=O)c1cnn(-c2cccc3ncccc23)c1C1CC1 [Zoniporide]
[1]
  % Stability in plasma: 105%
[2]
  Papp A→B at 120 min, 5 µM: 1.72 ×10⁻⁶ cm/s
  Papp B→A at 120 min, 5 µM: 1.22 ×10⁻⁶ cm/s
[3]
  fucyt, Human Liver Cytosol with 5 uM Raloxifene: 0.954 (5.40)
  fucyt, Human Liver Cytosol with 50 uM Hydralazine: 1 (0.40)
[4]; 47 (per cell)
  pKa1: 3.4[47]
  pKa2: 7.2[47]
[4]; octanol-water, 12 (per cell)
  logP: 1.15[12]
[5]; at incubation protein concentration (0.25 or 0.5 mg/mL)
  fumic (PBPK input): 0.642
[5]
  Predicted fumic for 1 mg/mL: 0.476
[6]; measured in excreta
  fmAO: 0.52-0.69
[6]; observed (mass balance), min-max where uncertain, Table S10
  fmAO: 52-69
[6]; observed (mass balance), min-max, ref suppl. 13
  fmother: 13-30
[6]; ref suppl. 9-11, 13
  ferenal: 0.17
  fmother (maximum): 0.30
  fmother (minimum): 0.13
[6]; ref suppl. 11, 13
  fmAO (maximum): 0.69
  fmAO (minimum): 0.52
[6]; ref suppl. 13
  fe (biliary): 0.01
[7]
  fucyt, Dog Liver Cytosol with 50 uM Hydralazine: 0.847 (1.57)
[8]; [13]
  AUCinf: 839 (4.08) ng.h/mL
  CLiv: 95.4 (5.71) L/h
  Cmax: 590 (7.49) ng/mL
[8]
  CLRenal: 16.2 L/h
[9]
  HH CLint, non-AO: 1.6[21] μL/min/10^6 hepatocytes
[10]
  microsomal CLint at 1 µM: 5.19 µL/min/mg
Aldehyde oxidase (AO)
  CLint scaled: > 1000 mL/min/kg

## COc1cc2nccc(Oc3ccc(NC(=O)NC4CC4)c(Cl)c3)c2cc1C(N)=O [Lenvatinib]
In vitro
  microsomal CLint at 1 µM: 7.43 µL/min/mg
[11]
  microsomal CLint at 1 µM: 1 µL/min/mg
[1]
  % Stability in plasma: 108%
[2]
  Papp A→B at 120 min, 5 µM: 29.8 ×10⁻⁶ cm/s
  Papp B→A at 120 min, 5 µM: 21.3 ×10⁻⁶ cm/s
[3]
  fucyt, Human Liver Cytosol with 5 uM Raloxifene: 0.678 (3.49)
  fucyt, Human Liver Cytosol with 50 uM Hydralazine: 0.718 (1.95)
[4]; 47 (per cell)
  pKa1: 12.37[44]
[12]
  fumic (PBPK input): 0.627
[5]
  Predicted fumic for 1 mg/mL: 0.463
[6]; observed (mass balance), min-max where uncertain, ref suppl. 8-12
  fmCYP3A4: 28-41
[6]; ref suppl. 9-11
  fmCYP3A4 (maximum): 0.41
  fmCYP3A4 (minimum): 0.28
[7]
  fucyt, Dog Liver Cytosol with 50 uM Hydralazine: 0.721 (7.47)
CYP3A4; DDI study with itraconazole (capmatinib 200 mg) or ketoconazole (idelalisib 400, lenvatinib 5, ziprasidone 40 mg), observed geomean (CV%), ref suppl. 15,10,17,20,24
  Cmax, control: 43.7 (26) ng/mL
CYP3A4; DDI study with itraconazole (capmatinib 200 mg) or ketoconazole (idelalisib 400, lenvatinib 5, ziprasidone 40 mg), observed, ref suppl. 15,10,17,20,24
  AUCinf, control: 577 (17) ng.h/mL
CYP3A4; [14]
  AUCinf, control (AUC0-12 for ziprasidone): 2370 (24.2) ng.h/mL
  Cmax, control: 274 (36.2) ng/mL
CYP3A4; [15]
  AUCinf, interaction: 662 (21) ng.h/mL
  Cmax, interaction: 51.2 (38) ng/mL
CYP3A4; [16]
  AUCinf, interaction (AUC0-12 for ziprasidone): 1950 (27.1) ng.h/mL
  Cmax, interaction: 275 (28.6) ng/mL
[8]
  CLRenal: 0.040 L/h
[9]
  HH CLint, non-AO: 0.5[21] μL/min/10^6 hepatocytes
